Experimental data: patent US4473587A, “Prostaglandin E1 analogues” (Ono Pharmaceutical Co., Ltd., priority 1982, dated 1984)
Where two headings read alike, the source gives them in different places.

Key:
[1] = tested on: carbon tetrachloride-induced liver damage; assay: carbon tetrachloride-induced liver damage in rats (plasma GOT, GPT); format: in vivo, rat; conditions: for cytoprotective activity compared with known compound H / cytoprotective activity: in words; for cytoprotective activity compared with known compound H: comparison with compound H; for cytoprotective activity: from the Table; for inhibition in vivo at 0.02 mg/kg / inhibition in vivo at 0.1 mg/kg / inhibition in vivo at 0.05 mg/kg / inhibition in vivo at 0.2 mg/kg: po, CCl4, rat, vs controls; for inhibition in vivo at 0.02 mg/kg: 20 μg/kg p.o.; for inhibition in vivo at 0.1 mg/kg: 100 μg/kg p.o.; for inhibition in vivo at 0.05 mg/kg: 50 μg/kg p.o.; for inhibition in vivo at 0.2 mg/kg: 200 μg/kg p.o.
Text: In the following Table, the pharmacological activities, i.e. carbon tetrachloride-induced cytodamage inhibition as an example of cytoprotective activity, and hypotensive and platelet aggregation inhibition activities as examples of side-effects, of known compounds are compared with those of compounds A, B and C of the invention.
^(1) The method used was that described in the specification of U.S.

[2] = tested on: D(+)-galactosamine-induced liver damage; assay: D(+)-galactosamine-induced liver damage in rats; format: in vivo; conditions: D(+)-galactosamine 375 mg/kg i.p. twice, rat, 100 μg/kg oral five times, blood at 48 hrs, vs control
[3] = tested on: uterine contraction; assay: uterine contraction in the pregnant female rat; format: in vivo; conditions: 20th day of gestation, i.v., doses of 50 and 20 μg/kg (compound A and compound B)
[4] = tested on: blood pressure; assay: hypotensive effect in the allobarbital anesthetized dog; format: in vivo; conditions: for hypotensive side-effect: in words, in comparison with known compounds D, E, F and G; for Hypotensive effect (E1 = 1): relative to PGE1 taken as 1.00, allobarbital anesthetised dog; for Hypotensive effect (E1 = 1) / duration of fall in blood pressure / fall in blood pressure: i.v.; for duration of fall in blood pressure / fall in blood pressure: allobarbital anesthetized dog
Experimental: (ii) by intravenous administration to the allobarbital anesthetized dog, compound B produced falls in blood pressure of 13 and 31 mmHg lasting 17 and 37 minutes at the doses of 1 and 2 μg/kg animal body weight, respectively.
(§1) In the Table, the values of side-effects are indicated relative to the activity of PGE1, taken as 1.00.
^(2) By intravenous administration to the allobarbital anesthetised

[5] = tested on: adenosine diphosphate-induced blood platelet aggregation; assay: inhibition of adenosine diphosphate-induced blood platelet aggregation in platelet rich plasma of rats; format: cell-based, rat; conditions: for platelet aggregation inhibiting side-effect: in words, in comparison with known compounds D, E, F and G; for Platelet aggregation inhibition (E1 = 1): relative to PGE1 taken as 1.00, ADP-induced, platelet rich plasma of rats
Text: as §1
^(3) Inhibition of adenosine diphosphateinduced blood platelet
aggregation in plateletrich plasma of rats.

[6] = tested on: mice; assay: acute toxicity in mice by oral administration; format: in vivo, mouse; conditions: 10 mg/kg animal body weight, 5 cases
Text: Therefore, the compounds of the present invention may be considered to be sufficiently safe and suitable for medical use.

[7] = tested on: α-naphthylisothiocyanate-induced liver damage; assay: α-naphthylisothiocyanate-induced liver damage in rats; format: in vivo; conditions: rat, 100 μg/kg oral, vs controls
[8] = read-out: inhibition of plasma GOT (glutamic oxaloacetic transaminase)
[9] = read-out: inhibition of plasma GPT (glutamic pyruvic transaminase)

Row | Compound | cytoprotective activity compared with known compound H [1] | cytoprotective activity [1] | inhibition in vivo at 0.1 mg/kg [1, 8] | hypotensive side-effect [4] | Hypotensive effect (E1 = 1) [4] | platelet aggregation inhibiting side-effect [5] | Platelet aggregation inhibition (E1 = 1) [5] | deaths in acute toxicity test [6] | also measured
1 | CCCCC1CC[C@H]([C@H](O)/C=C/[C@H]2[C@H](O)CC(=O)[C@@H]2CC(=O)CCCCCO)C1 (stereo partly drawn) [A, 2-decarboxy-2-hydroxymethyl-6-oxo-15-(3(RS)-butyl-1(S)-cyclopentyl)-16,17,18,19,20-pentanor-PGE1] | superior in their cytoprotective activity to the known compound H | possess cytoprotective activity | 71.8% | very weak side-effects | 1.2 | very weak side-effects | 0.05 | no deaths in 5 cases | inhibition in vivo at 0.02 mg/kg [1, 8]: 56.6%; inhibition in vivo at 0.02 mg/kg [1, 9]: 58.8%; inhibition in vivo at 0.1 mg/kg [1, 9]: 53.6%; inhibition of plasma GOT [2]: 20.4%; inhibition of plasma GPT [2]: 45.1%; inhibition of plasma bilirubin [2]: 36.2%; stimulation of uterine contraction [3]: stimulated uterine contraction
2 | CCCC1CC[C@H]([C@H](O)/C=C/[C@H]2[C@H](O)CC(=O)[C@@H]2CC(=O)CCCCCO)C1 (stereo partly drawn) [B, 2-decarboxy-2-hydroxymethyl-6-oxo-15-(3(RS)-propyl-1(S)-cyclopentyl)-16,17,18,19,20-pentanor-PGE1] | superior in their cytoprotective activity to the known compound H | possess cytoprotective activity | – | very weak side-effects | 0.35 | very weak side-effects | 0.05 | two deaths in 5 cases | inhibition in vivo at 0.05 mg/kg [1, 8]: 29.6%; inhibition in vivo at 0.05 mg/kg [1, 9]: 21.5%; inhibition of plasma GOT [7]: 52.6%; inhibition of plasma GPT [7]: 62.5%; inhibition of plasma bilirubin [7]: 30.3%; inhibition of plasma GOT [2]: 40.0%; inhibition of plasma GPT [2]: 50.3%; inhibition of plasma bilirubin [2]: 44.2%; stimulation of uterine contraction [3]: stimulated uterine contraction; duration of fall in blood pressure ([4]; 1 μg/kg): 17 min; fall in blood pressure ([4]; 1 μg/kg): 13 mmHg; duration of fall in blood pressure ([4]; 2 μg/kg): 37 min; fall in blood pressure ([4]; 2 μg/kg): 31 mmHg
3 | O=C(CCCCCO)C[C@H]1C(=O)C[C@@H](O)[C@@H]1/C=C/[C@@H](O)C1CCCC1 [C, 2-decarboxy-2-hydroxymethyl-6-oxo-15-cyclopentyl-16,17,18,19,20-pentanor-PGE1] | superior in their cytoprotective activity to the known compound H | possess cytoprotective activity | – | very weak side-effects | 0.77 | very weak side-effects | – | no deaths in 5 cases | inhibition in vivo at 0.2 mg/kg [1, 8]: 7.9%; inhibition in vivo at 0.2 mg/kg [1, 9]: 29.9%
4 | CCCC1CCC([C@H](O)/C=C/[C@H]2[C@H](O)CC(=O)[C@@H]2CC(=O)CCCCC(=O)O)C1 (stereo partly shown) [D, 6Oxo-15-(3RS-propyl-1RS-cyclopentyl)-16,17,18,19,20-pentanor-PGE1, reference compound] | – | possess cytoprotective activity | – | – | 13 | – | 48.4 | – | –
5 | CCCC1CCC([C@H](O)/C=C/[C@H]2[C@H](O)CC(=O)[C@@H]2CC(=O)CCCCC(=O)OC)C1 (stereo partly shown) [E, 6Oxo-15-(3RS-propyl-1RS-cyclopentyl)-16,17,18,19,20-pentanor-PGE1 methyl ester, reference compound] | – | possess cytoprotective activity | 77% | – | 25.7 | – | 58.6 | – | –
6 | CCCCC1CCC([C@H](O)/C=C/[C@H]2[C@H](O)CC(=O)[C@@H]2CC(=O)CCCCC(=O)OC)C1 (stereo partly shown) [F, 6Oxo-15-(3RS-butyl-1RS-cyclopentyl)-16,17,18,19,20-pentanor-PGE1 methyl ester, reference compound] | – | possess cytoprotective activity | – | – | 12.6 | – | 51.0 | – | –
7 | CCCC1CCC([C@H](O)/C=C/[C@H]2[C@H](O)CC(=O)[C@@H]2CC(=O)CCCCC(=O)OC)CC1 (stereo partly shown) [G, 6Oxo-15-(4RS-propyl-1RS-cyclohexyl)-16,17,18,19,20-pentanor-PGE1 methyl ester, reference compound] | – | possess cytoprotective activity | – | – | 6.2 | – | 19.7 | – | –
8 | CCCCC[C@H](O)/C=C/[C@H]1[C@H](O)CC(=O)[C@@H]1CC(=O)CCCCCO [H, 2Decarboxy-2-hydroxymethyl-6-oxo-PGE1, reference compound] | – | – | 3.4% | – | – | – | – | – | inhibition in vivo at 0.1 mg/kg [1, 9]: -0.07%
